Results reported in patent US20260325533A1, “CDK INHIBITOR COMPOUNDS” (ALEKSIA THERAPEUTICS, INC., priority 2023, published 2026).
Like-named read-outs stand apart in the source and are kept apart here.

Columns and labels:
Assay type in all cases: biochemical
CDK6/CCND1 = CDK6/CCND1 (Homo sapiens, UniProt Q00534); assay: CDK6 homogeneous time-resolved fluorescence (HTRF) kinase assay; details: CDK6/CCND; >250 nM marked x; read-out: CDK6/CCND IC50 >250 nM
Procedure: A CDK homogeneous time-resolved fluorescence (HTRF) assay was used to assess the potency of the compounds described herein.
To an untreated 384-well microtiter plate (ProxiPlate) was added 100 nL 100×test compound in DMSO and 5 μL 2×CDK enzyme in assay buffer (50 mM HEPES, 1 mM EGTA, 10 mM MgCl2, 0.01% Tween 20, 2 mM DTT). The plate was centrifuged at 800 RPM for 1 min then incubated for 20 min at 23 °C. 2.5 μL per well of 4×ATP and 2.5 μL 4×ULight™-eIF4E-binding protein 1 (Thr37/46) Peptide substrate were added to all wells. After addition, the plates were centrifuged at 800 RPM for 1 min. The plates were incubated at 23 °C for 60 min. 5 μL per well 4×EDTA solution were added to each well to stop the reaction. 5 μL 4×LANCE Ultra Europium-anti-phospho-eIF4E-binding protein 1 (Thr37/46) antibody were added to each well and the plate was centrifuged for 1 min at 800 RPM. The plate was incubated for 60 min at 23 °C. Fluorescence was read at 340 nm excitation and 665 nm emission on an EnVision 2105 fluorescence reader. The final concentrations of reagents in the activity assay were 1 nM CDK6/CCND1, 1 mM ATP, 50 nM ULight™-eIF4E-binding protein 1 (Thr37/46) Peptide substrate, 1% DMSO, 10 mM EDTA, and 2 nM LANCE Ultra Europium-anti-phospho-eIF4E-binding protein 1 (Thr37/46).
Dose-response titrations were conducted by using an 11-point, half-logarithmic serial dilution scheme typically starting at 10 μM. Signals were reported as fluorescence units at 665 nm or the ratio of fluorescence units at 665 nm/fluorescence units at 615 nm. Signals are referred to below as “Lance signals”.
Using this assay, the IC50 values of example compounds were determined. Table 3 illustrates the IC50 for various Example compounds of Formula IA. Table 4 illustrates the IC50 for various other Example compounds of Formula I. ND=not determined.

CDK1/CCNB1 = CDK1/CCNB1 (Homo sapiens, UniProt P06493); assay: CDK1 homogeneous time-resolved fluorescence (HTRF) kinase assay
How it was run: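 High-ATP (1 mM) HTRF assay with 0.5 nM CDK1/cyclin B1 and 50 nM ULight-4E-BP1 (Thr37/46) substrate, 60 min at 23 °C after 20-min compound preincubation. IC50 values come from dose-response curves.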

CDK2/CCNE1 = CDK2/CCNE1 (Homo sapiens, UniProt P24941); assay: CDK2 homogeneous time-resolved fluorescence (HTRF) kinase assay
How it was run: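 An HTRF format measures CDK2/CCNE1 (3 nM) phosphorylating a 4E-BP1 Thr37/46 peptide at high (1 mM) ATP. Reactions run one hour at 23 °C, then EDTA-quenched and probed with Eu-labelled phospho-specific antibody.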

[1] = CDK1/CCNB, >250 nM marked x, read-out: CDK1/CCNB IC50 >250 nM
[2] = CDK2/CCNE, 25-250 nM marked x, read-out: CDK2/CCNE IC50 25-250 nM
[3] = CDK1/CCNB, 25-250 nM marked x, read-out: CDK1/CCNB IC50 25-250 nM
[4] = CDK2/CCNE, <25 nM, read-out: CDK2/CCNE IC50 <25 nM
[5] = CDK2/CCNE, >250 nM marked x, read-out: CDK2/CCNE IC50 >250 nM
[6] = 0.5 nM CDK1/CCNB1, 1 mM ATP, read-out: CDK1/CCNB IC50 >250 nM
[7] = 3 nM CDK2/CCNE1, 1 mM ATP, read-out: CDK2/CCNE IC50 >250 nM
[8] = 3 nM CDK2/CCNE1, 1 mM ATP, read-out: CDK2/CCNE IC50 25-250 nM

Sequence of CDK1/CCNB1 (P06493 whole entry): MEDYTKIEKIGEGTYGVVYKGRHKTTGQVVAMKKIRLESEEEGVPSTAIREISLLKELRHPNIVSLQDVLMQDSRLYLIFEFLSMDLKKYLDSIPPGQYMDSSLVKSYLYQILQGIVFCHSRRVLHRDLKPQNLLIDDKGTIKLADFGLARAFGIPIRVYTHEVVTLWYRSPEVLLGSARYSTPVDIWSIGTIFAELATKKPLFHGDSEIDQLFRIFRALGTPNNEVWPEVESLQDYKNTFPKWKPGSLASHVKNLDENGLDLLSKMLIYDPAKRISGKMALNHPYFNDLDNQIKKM
Sequence of CDK1/CCNB1 (P14635 whole entry partner): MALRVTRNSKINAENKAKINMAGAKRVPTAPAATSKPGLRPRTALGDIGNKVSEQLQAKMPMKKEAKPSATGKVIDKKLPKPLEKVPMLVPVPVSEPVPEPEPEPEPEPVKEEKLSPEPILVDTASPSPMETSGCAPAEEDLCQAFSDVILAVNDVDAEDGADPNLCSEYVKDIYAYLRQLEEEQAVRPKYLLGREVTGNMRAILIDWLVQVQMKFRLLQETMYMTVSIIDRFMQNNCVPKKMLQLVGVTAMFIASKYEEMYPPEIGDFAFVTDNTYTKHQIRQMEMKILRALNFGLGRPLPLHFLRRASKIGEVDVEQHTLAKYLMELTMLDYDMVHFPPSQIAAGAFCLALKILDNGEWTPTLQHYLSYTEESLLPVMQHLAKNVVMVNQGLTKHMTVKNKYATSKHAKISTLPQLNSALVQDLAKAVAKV
Sequence of CDK6/CCND1 (Q00534 whole entry): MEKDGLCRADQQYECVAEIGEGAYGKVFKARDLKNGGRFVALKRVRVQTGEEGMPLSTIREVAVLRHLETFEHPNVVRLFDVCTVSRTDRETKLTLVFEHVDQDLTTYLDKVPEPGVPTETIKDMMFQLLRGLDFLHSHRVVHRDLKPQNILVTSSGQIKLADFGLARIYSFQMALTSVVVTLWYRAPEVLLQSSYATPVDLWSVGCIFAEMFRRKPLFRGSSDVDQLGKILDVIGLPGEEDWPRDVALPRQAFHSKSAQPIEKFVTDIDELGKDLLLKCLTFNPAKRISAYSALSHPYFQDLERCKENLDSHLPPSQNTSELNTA
Sequence of CDK6/CCND1 (P24385 whole entry partner): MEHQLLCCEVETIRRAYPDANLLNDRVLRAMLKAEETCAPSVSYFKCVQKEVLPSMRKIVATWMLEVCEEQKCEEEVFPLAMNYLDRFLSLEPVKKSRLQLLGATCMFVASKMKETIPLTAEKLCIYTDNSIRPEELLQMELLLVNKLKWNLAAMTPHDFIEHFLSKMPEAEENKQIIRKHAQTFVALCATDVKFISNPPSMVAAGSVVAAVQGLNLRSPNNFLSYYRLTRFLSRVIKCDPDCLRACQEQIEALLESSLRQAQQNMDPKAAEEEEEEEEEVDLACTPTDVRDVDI

IC50 (CDK1/CCNB1; [1]) [nM]	IC50 (CDK2/CCNE1; [2]) [nM]	SMILES	other results
–	–	CC(C)S(=N)(=O)c1ccc(Nc2cc3c(C#Cc4ccc5c(c4)NC(=O)C5(C)CCO)nccc3cn2)cc1 (single isomer, unassigned) [Ex 287, 3-(2-hydroxyethyl)-3-methyl-6-((7-((4-(propan-2-ylsulfonimidoyl)phenyl)amino)-2,6-naphthyridin-1-yl)ethynyl)indolin-2-one]	IC50 (CDK6/CCND1): > 250 nM
> 250	25 to 250	C=CS(=O)(=O)c1ccc(Nc2cc3c(-c4ccc5[nH]ncc5c4)nccc3cn2)cc1 [Ex 205, 5-(1H-indazol-5-yl)-N-(4-(vinylsulfonyl)phenyl)-2,6-naphthyridin-3-amine]	–
> 250	25 to 250	Cc1c(-c2nccc3cnc(Nc4ccc(S(C)(=O)=O)cc4)cc23)ccc2nn(CCC3CNC3)cc12 [Ex 208, 5-(2-(2-(azetidin-3-yl)ethyl)-4-methyl-2H-indazol-5-yl)-N-(4-(methylsulfonyl)phenyl)-2,6-naphthyridin-3-amine]	–
> 250	25 to 250	C=CS(=O)(=O)c1ccc(Nc2cc3c(-c4cc5cn[nH]c5cc4C)nccc3cn2)cc1 [Ex 209, 5-(6-methyl-1H-indazol-5-yl)-N-(4-(vinylsulfonyl)phenyl)-2,6-naphthyridin-3-amine]	–
–	25 to 250	N#CC1CCN(c2nccc3cnc(Nc4ccc(O)c(CO)c4)cc23)CC1 [Ex 210, 1-(7-((4-hydroxy-3-(hydroxymethyl)phenyl)amino)-2,6-naphthyridin-1-yl)piperidine-4-carbonitrile]	IC50 (CDK1/CCNB1; [3]): 25 to 250 nM
> 250	25 to 250	CC1(C#N)CCN(c2nccc3cnc(NC4CCN(S(C)(=O)=O)CC4)cc23)CC1 [Ex 212, 4-methyl-1-(7-((1-(methylsulfonyl)piperidin-4-yl)amino)-2,6-naphthyridin-1-yl)piperidine-4-carbonitrile]	–
–	–	N#CC1CCN(c2nccc3cnc(Nc4cccc(C(=O)ON5C(=O)CCC5=O)c4)cc23)CC1 [Ex 258, 2,5-dioxopyrrolidin-1-yl 3-((5-(4-cyanopiperidin-1-yl)-2,6-naphthyridin-3-yl)amino)benzoate]	IC50 (CDK1/CCNB1; CDK1/CCNB, <25 nM, read-out: CDK1/CCNB IC50 <25 nM): < 25 nM; IC50 (CDK2/CCNE1; [4]): < 25 nM
> 250	25 to 250	CS(=O)(=O)c1ccc(Nc2cc3c(N4CCC(C#N)CC4)nccc3cn2)cc1 [Ex 259, 1-(7-((4-(methylsulfonyl)phenyl)amino)-2,6-naphthyridin-1-yl)piperidine-4-carbonitrile]	–
–	–	Cc1cc2c(cnn2C)cc1-c1nccc2cnc(NC3CCN(S(C)(=O)=O)CC3)cc12 [Ex 262, 5-(1,6-dimethyl-1H-indazol-5-yl)-N-(1-(methylsulfonyl)piperidin-4-yl)-2,6-naphthyridin-3-amine]	IC50 (CDK1/CCNB1; [3]): 25 to 250 nM; IC50 (CDK2/CCNE1; [4]): < 25 nM
> 250	25 to 250	Cn1cc(-c2nccc3cnc(NC4CCN(S(C)(=O)=O)CC4)cc23)cn1 [Example 4, 5-(1-methyl-1H-pyrazol-4-yl)-N-(1-(methylsulfonyl)piperidin-4-yl)-2,6-naphthyridin-3-amine]	–
> 250	25 to 250	COc1nccc2cnc(NC3CCN(S(C)(=O)=O)CC3)cc12 [Example 5, 5-methoxy-N-(1-(methylsulfonyl)piperidin-4-yl)-2,6-naphthyridin-3-amine]	–
> 250	25 to 250	CS(=O)(=O)N1CCC(Nc2cc3c(-c4ccccn4)nccc3cn2)CC1 [Example 8, N-(1-(methylsulfonyl)piperidin-4-yl)-5-(pyridin-2-yl)-2,6-naphthyridin-3-amine]	–
> 250	–	C=CS(=O)(=O)N1CCC(Nc2cc3c(N4CCCCC4)nccc3cn2)C1 (stereo not drawn) [Example 9, 5-(piperidin-1-yl)-N-(1-(vinylsulfonyl)pyrrolidin-3-yl)-2,6-naphthyridin-3-amine]	IC50 (CDK2/CCNE1; [5]): > 250 nM
> 250	25 to 250	C=CS(=O)(=O)N1CCC(Nc2cc3c(N4CCC(F)(F)CC4)nccc3cn2)CC1 [Example 10, 5-(4,4-difluoropiperidin-1-yl)-N-(1-(vinylsulfonyl)piperidin-4-yl)-2,6-naphthyridin-3-amine]	–
> 250	–	CS(=O)(=O)N1CCC(Nc2cc3c(C(=O)N4CCC(O)CC4)nccc3cn2)CC1 [Example 12, (4-hydroxypiperidin-1-yl)(7-((1-(methylsulfonyl)piperidin-4-yl)amino)-2,6-naphthyridin-1-yl)methanone]	IC50 (CDK2/CCNE1; [5]): > 250 nM
–	–	N#CC1CCN(c2nccc3cnc(Nc4cccc(OS(=O)(=O)F)c4)cc23)CC1 [Example 13, 3-((5-(4-cyanopiperidin-1-yl)-2,6-naphthyridin-3-yl)amino)phenyl sulfurofluoridate]	IC50 (CDK1/CCNB1): > 250 nM; IC50 (CDK2/CCNE1): > 250 nM
–	–	N#CC1CCN(c2nccc3cnc(Nc4ccc(OS(=O)(=O)F)cc4)cc23)CC1 [Example 14, 4-((5-(4-cyanopiperidin-1-yl)-2,6-naphthyridin-3-yl)amino)phenyl sulfurofluoridate]	IC50 (CDK1/CCNB1): > 250 nM; IC50 (CDK2/CCNE1): > 250 nM
> 250	–	N#CC1CCN(c2nccc3cnc(Nc4ccc(C(=O)NC5CCSC5=O)cc4)cc23)CC1 (stereo not drawn) [Example 16, 4-((5-(4-cyanopiperidin-1-yl)-2,6-naphthyridin-3-yl)amino)-N-(2-oxotetrahydrothiophen-3-yl)benzamide]	IC50 (CDK2/CCNE1; [5]): > 250 nM
> 250	25 to 250	CS(=O)(=O)N1CCC(Nc2cc3c(N4CCCCC4)nc(CO)cc3cn2)CC1 [Example 17, (7-((1-(methylsulfonyl)piperidin-4-yl)amino)-1-(piperidin-1-yl)-2,6-naphthyridin-3-yl)methanol]	–
> 250	25 to 250	CS(=O)(=O)N1CCC(Nc2cc3c(N4CCCCC4)nc(CCO)cc3cn2)CC1 [Example 19, 2-(7-((1-(methylsulfonyl)piperidin-4-yl)amino)-1-(piperidin-1-yl)-2,6-naphthyridin-3-yl)ethan-1-ol]	–
> 250	–	Cc1cc2cnc(NC3CCN(S(C)(=O)=O)CC3)cc2c(N2CCCCC2)n1 [Example 25, 7-methyl-N-(1-(methylsulfonyl)piperidin-4-yl)-5-(piperidin-1-yl)-2,6-naphthyridin-3-amine]	IC50 (CDK2/CCNE1; [5]): > 250 nM
–	–	CS(=O)(=O)c1ccc(Nc2cc3c(C4=CCCCC4)ccnc3cn2)cc1 [Example 951, 4-(cyclohex-1-en-1-yl)-N-(4-(methylsulfonyl)phenyl)-1,7-naphthyridin-6-amine]	IC50 (CDK1/CCNB1; [6]): > 250 nM; IC50 (CDK2/CCNE1; [7]): > 250 nM
–	–	CS(=O)(=O)c1ccc(Nc2ncc3cccc(C4=CCCCC4)c3n2)cc1 [Example 952, 8-(cyclohex-1-en-1-yl)-N-(4-(methylsulfonyl)phenyl)quinazolin-2-amine]	IC50 (CDK1/CCNB1; [6]): > 250 nM; IC50 (CDK2/CCNE1; [8]): 25 to 250 nM
–	–	CS(=O)(=O)c1ccc(Nc2cc3c(N4CCC(C#N)CC4)ccnc3cn2)cc1 [Example 959, 1-(6-((4-(methylsulfonyl)phenyl)amino)-1,7-naphthyridin-4-yl)piperidine-4-carbonitrile]	IC50 (CDK1/CCNB1; [6]): > 250 nM; IC50 (CDK2/CCNE1; [7]): > 250 nM
–	–	CS(=O)(=O)c1ccc(Nc2cc3c(N4CCC(C#N)CC4)ncnc3cn2)cc1 [Example 960, 1-(6-((4-(methylsulfonyl)phenyl)amino)pyrido [3,4-d]pyrimidin-4-yl)piperidine-4-carbonitrile]	IC50 (CDK1/CCNB1; [6]): > 250 nM; IC50 (CDK2/CCNE1; [7]): > 250 nM
–	–	CS(=O)(=O)c1ccc(Nc2ncc3cccc(N4CCC(C#N)CC4)c3n2)cc1 [Example 961, 1-(2-((4-(methylsulfonyl)phenyl)amino)quinazolin-8-yl) piperidine-4-carbonitrile]	IC50 (CDK1/CCNB1; [6]): > 250 nM; IC50 (CDK2/CCNE1; [8]): 25 to 250 nM
